Results from patent US20190185896A1, “Stimulation of Regenerative Processes and Factors by Noble Gases” (NOBILIS THERAPEUTICS, INC., priority 2017, published 2019).

Columns and labels:
HUVECs = experiment: Cell migration scratch assay; type: cell-based; settings: 75% argon for 2 hours, 16 hours post-exposure
Description: The following was adopted from a previous published protocol (Liang et al., 2007) to study the influence of argon on migration of HUVECs. Prior to assay, HUVECs in EGM were re-suspended in incomplete LSGS medium and seeded onto pre-coated 12-well plates at a density of 2-3×10^5/well. The plates were incubated at 37° C. with 5% CO2 overnight for the cells to adhere to the gelatin surface as well as to create a confluent monolayer. Use of low serum condition is crucial as it ensures survival and attachment of cells while minimising their proliferation.
Once 100% confluence was reached, the monolayers were scraped using a sterile p1000 pipette tip along the middle to create a straight-line “scratch”. After cell debris was washed off, the wells were replenished with fresh incomplete-LSGS medium.
The plates were then exposed to normal air, 75% argon or 75% nitrogen for 2 hours. From 0 to 16 hours post-exposure, wells were examined every 4 hours. […] The cells were then fixed with 4% paraformaldehyde (Fischer, UK) for 8 minutes and stained with 0.1% crystal violet (Sigma-Aldrich, UK) for 10 minutes. Images were taken as described in the previous section.

VEGF = VEGF staining of adult mouse cutaneous wounds; type: in vivo; settings: mouse cutaneous wounds, 3, 5, 8 day after wound, versus 75% N2
Description: (§1) To create the excisional wounds, adult mice were anesthetized and the dorsal skin was shaved, after sanitizing with 70% ethanol, 4 full-thickness excisional wounds were generated with a 4-mm sterile punch (stiefel laboratories, Research Triangel Park, N.C.). On the dorsal skin using 4-mm-diameter dermal biopsy punches through the two layers of skin (Miltex Inc.).
(§2) The perfusion fixed skin tissue was cryosectioned (thickness 30 μm) and mounted on Superfrost Plus glass slides for the process of immunostaining analysis. The sections were initially incubated by a solution of 0.3% hydrogen peroxide in methanol to quench endogenous peroxidase before being exposed to a blocking solution of 0.1M phosphate buffered saline (PBS) containing 0.3% Triton X-100 and 3% natural sheep serum (NSS). Following this process of blocking the sections were incubated overnight at […] with rat polyclonal angiopoietin 1, VEGF, CD34, TGF-β (Abcam, UK). […]
(§3) (A) Angiopoietin 1 staining of adult mouse cutaneous wounds. […] Right lane: the intensity of Angiopoietin 1 was quantified by densitometry and normalized by 75% N2 at 3 day (mean±S.D, n=10), * p<0.05. […] The intensity of VEGF was quantified by densitometry and normalized by 75% N2 at 3 day (mean±S.D, n=10), * p<0.05.

TGF-β = experiment: TGFβ staining of adult mouse cutaneous wounds; type: in vivo; settings: mouse cutaneous wounds, 3, 5, 8 day after wound, versus 75% N2
Description: as §1, §2
(§4) (A) Immunohistochemical analyses using anti-CD34 in skin wound samples from the mice treated with Nitrogen and Argon. […] The numbers of new vessels per a high-power microscopic field (×100) in 10 fields/a slide was counted. […] The intensity of TGFβ was quantified by densitometry and normalized by 75% N2 at 3 day (mean±S.D, n=10), * p<0.05.

CD34 = experiment: Anti-CD34 immunohistochemistry of skin wound samples (new vessels in the wound area); type: in vivo, mice; settings: mouse skin wound samples, versus Nitrogen
Description: as §1, §2, §4

[1] = system: cerebral cortical neurons; settings: 75% concentration, in vitro, regardless of presence or absence of OGD injury; cited from earlier work
[2] = system: a SMA expression in fibroblasts; experiment: a-SMA expression in fibroblasts in vitro (immunofluorescence staining, western blotting); type: cell-based; settings: 75% Argon+25% O2, 10 ng/ml TGF, 72 h after treatment
Description: For in vitro fluorescence staining, cells were fixed in paraformaldehyde in 0.1 mol/l PBS solution. Cells were then incubated in 10% normal donkey serum in 0.1 mol/l PBS-Tween 20 and then incubated overnight with rabbit anti-angiopoietin-1 (1:200, Abcam), rabbit anti-TGF-β (1:200, Abcam), rabbit α-SMA (1:200, Abcam), followed by incubation with secondary antibody for 1 h. The slides were counterstained with nuclear dye DAPI and mounted with VECTASHIELD Mounting Medium (Vector Laboratories, Burlingame, Calif.). Sections were examined using an Olympus (Watford, UK) BX4 microscope.
HUVEC cell sample was stored in a −80° C. freezer until use. Cell samples were homogenized in ice-cold cell lysis buffer (20 mM Tris pH 7.5, 1% Triton X-100, 150 mM sodium chloride, 1% pyrophosphate, 1% betaglycophosphate, 1% NP-40, 0.1% SDS, 1 mM EDTA, 100 μg/ml phenylmethylsulfonyl fluoride, 1 μg/ml aprotinin). All homogenates were then centrifuged for 20 minutes at 15,000 rpm at 4° C. The supernatants were then extracted and protein quantification was carried out using a Bradford protein quantification assay kit (Bio-Rad, Hemel Hempstead, UK). […]
Membranes were then blocked in 5% non-fat powdered milk in TBST (50 mM Tris-HCl, 150 mM sodium chloride, 0.1% Tween 20, pH 7.4). […] Protein bands were then analyzed by densitometric quantification with Adobe PhotoShop (Adobe Systems, California, USA). […]

skin wound = experiment: Skin wound healing in mice (excisional wounds); type: in vivo; settings: 75% Argon versus 75% nitrogen
Description: as §1
A Macroscopic changes in skin wound site in a mice treated with 75% nitrogen or Argon. Day 0 picture was taken immediately after injury. Representative images from 2 individual animals in both groups are shown.

Angiopoietin 1 = Angiopoietin 1 staining of adult mouse cutaneous wounds; type: in vivo; settings: mouse cutaneous wounds, 3, 5, 8 day after wound, versus 75% N2
Description: as §1, §2, §3

[3] = system: VEGF expression in fibroblasts; experiment: VEGF expression in fibroblasts in vitro (immunofluorescence staining, western blotting); type: cell-based; settings: 75% Argon+25% O2, 24 h after treatment

With [Ar] [Argon, argon] the “Scratch closure by migrating cells” value (HUVECs) was “completely closed”, the “VEGF expression in vivo” value (VEGF) was “enhanced” and the TGF-β in vivo (TGF-β) was “enhanced”. The “CD34 in vivo (new vessels in the wound area)” value (CD34) was “enhanced”, the “Viability and proliferation of cerebral cortical neurons” value [1] was “potently enhanced” and the “a-SMA expression in vitro” value [2] was “enhanced”. For the same molecule, the Skin wound healing (skin wound) was “accelerated”, the “Angiopoietin 1 expression in vivo” value (Angiopoietin 1) was “enhanced” and the “VEGF expression in vitro” value [3] was “enhanced”.
